Test results: DBAASP
Converted amounts (≈) assume the structure as drawn.

Experiments:
Assay in all cases: ≥ marks a high value that may be exact or a test limit, other limits are often not marked, values filed in µg/mL are converted to µM
[1] = tested on: Bacillus subtilis
[2] = tested on: Escherichia coli
[3] = tested on: Klebsiella pneumoniae
[4] = tested on: Micrococcus luteus
[5] = tested on: Proteus mirabilis
[6] = tested on: Pseudomonas aeruginosa
[7] = tested on: Salmonella typhimurium
[8] = tested on: Shigella dysenteriae
[9] = tested on: Staphylococcus aureus
[10] = tested on: Staphylococcus epidermidis
[11] = tested on: Candida albicans
[12] = tested on: Saccharomyces cerevisiae
[13] = tested on: Serratia marcescens
[14] = tested on: Bacillus cereus
[15] = tested on: Leuconostoc lactis
[16] = tested on: Listeria innocua
[17] = tested on: Pasteurella multocida
[18] = tested on: Streptococcus uberis
[19] = tested on: Clavibacter michiganensis subsp. michiganensis DSM 46294
[20] = tested on: Pectobacterium carotovorum subsp. carotovorum DSM 30168
[21] = tested on: Pseudomonas corrugata DSM 7228
[22] = tested on: Pseudomonas syringae pv. syringae DSM 10604
[23] = tested on: Pseudomonas syringae pv. tomato DC3000
[24] = tested on: Xanthomonas vesicatoria DSM 50861

SMILES	MIC [1] [µM]	MIC [2] [µM]	MIC [4] [µM]	MIC [5] [µM]	MIC [6] [µM]	MIC [7] [µM]	MIC [8] [µM]	MIC [9] [µM]	MIC [10] [µM]	MIC [14] [µM]	MIC [15] [µM]	MIC [16] [µM]	MIC [17] [µM]	MIC [18] [µM]	further results
CC(C)C[C@H](NC(=O)[C@H](C)NC(=O)CNC(=O)[C@H](CC(C)C)NC(=O)[C@@H](N)Cc1ccccc1)C(=O)N[C@@H](Cc1ccccc1)C(=O)N[C@@H](CCCCN)C(=O)N[C@H](C(=O)N[C@@H](C)C(=O)N[C@@H](CO)C(=O)N[C@@H](CCCCN)C(=O)O)C(C)C [FLGALFKVASK]	≥ 169	> 169	≥ 169	≥ 169	> 169	≥ 169	≥ 169	> 169	≥ 169	–	–	–	–	–	MIC [3]: > 169 µM
CC(C)C[C@H](NC(=O)CNC(=O)[C@H](CC(C)C)NC(=O)[C@@H](N)Cc1ccccc1)C(=O)N[C@@H](CC(C)C)C(=O)N[C@@H](Cc1ccccc1)C(=O)N[C@@H](CCCCN)C(=O)N[C@H](C(=O)N[C@@H](C)C(=O)N[C@@H](CO)C(=O)N[C@@H](CCCCN)C(=O)O)C(C)C [FLGLLFKVASK]	≥ 40.9	164 (≈ 200 µg/mL)	10.2 (≈ 12.5 µg/mL)	≥ 164	> 164	≥ 164	≥ 164	20.4 (≈ 25 µg/mL)	≥ 40.9	–	–	–	–	–	MIC [3]: 81.8 µM (≈ 100 µg/mL)
CC(C)C[C@H](NC(=O)[C@@H](NC(=O)[C@H](CCCCN)NC(=O)[C@H](CO)NC(=O)[C@H](C)NC(=O)[C@@H](NC(=O)[C@H](CCCCN)NC(=O)[C@H](Cc1ccccc1)NC(=O)[C@H](CC(C)C)NC(=O)[C@H](C)NC(=O)[C@H](CCCCN)NC(=O)[C@H](CC(C)C)NC(=O)[C@@H](N)Cc1ccccc1)C(C)C)C(C)C)C(=O)O [FLKALFKVASKVL]	8.54 (≈ 12.5 µg/mL)	4.3 (≈ 6.3 µg/mL)	2.12 (≈ 3.1 µg/mL)	≥ 137	17.1 (≈ 25 µg/mL)	8.54 (≈ 12.5 µg/mL)	4.3 (≈ 6.3 µg/mL)	2.12 (≈ 3.1 µg/mL)	2.12 (≈ 3.1 µg/mL)	–	–	–	–	–	MIC [3]: 2.12 µM (≈ 3.1 µg/mL)
CC[C@H](C)[C@H](NC(=O)CN)C(=O)N[C@@H](CC(C)C)C(=O)N[C@@H](CC(=O)O)C(=O)N[C@H](C(=O)N[C@@H](CC(C)C)C(=O)N[C@@H](CCCCN)C(=O)N[C@@H](CCC(N)=O)C(=O)N[C@@H](Cc1ccccc1)C(=O)N[C@@H](C)C(=O)N[C@@H](CCCCN)C(=O)NCC(=O)N[C@H](C(=O)NCC(=O)N[C@@H](CCCCN)C(=O)N[C@@H](CC(=O)O)C(=O)N[C@@H](CC(C)C)C(=O)N[C@H](C(=O)N[C@@H](CCCCN)C(=O)NCC(=O)N[C@@H](C)C(=O)N[C@@H](C)C(=O)N[C@@H](CCC(N)=O)C(=O)NCC(=O)N[C@H](C(=O)N[C@@H](CC(C)C)C(=O)N[C@@H](CO)C(=O)N[C@H](C(=O)O)[C@@H](C)O)C(C)C)C(C)C)C(C)C)[C@@H](C)O [GILDTLKQFAKGVGKDLVKGAAQGVLST]	17.8 (≈ 50 µg/mL)	8.88 (≈ 25 µg/mL)	0.888 (≈ 2.5 µg/mL)	≥ 35.5	17.8 (≈ 50 µg/mL)	26.6 (≈ 75 µg/mL)	8.88 (≈ 25 µg/mL)	–	17.8 (≈ 50 µg/mL)	–	–	–	–	–	MIC [11]: > 35.5 µM; MIC [12]: 8.88 µM (≈ 25 µg/mL); MIC [13]: ≥ 35.5 µM
CC[C@H](C)[C@H](NC(=O)[C@H](CO)NC(=O)CNC(=O)[C@@H](NC(=O)[C@H](CC(C)C)NC(=O)CN)[C@@H](C)CC)C(=O)NCC(=O)N[C@@H](CCCCN)C(=O)N[C@@H](C)C(=O)N[C@@H](CC(C)C)C(=O)NCC(=O)NCC(=O)N[C@@H](CC(C)C)C(=O)N[C@@H](CC(C)C)C(=O)N[C@H](C(=O)N[C@@H](CC(=O)O)C(=O)N[C@H](C(=O)N[C@@H](CC(C)C)C(=O)N[C@@H](CCCCN)C(=O)N1CCC[C@H]1C(=O)N[C@@H](CCCCN)C(=O)N[C@@H](CC(C)C)C(=O)N[C@@H](CCC(N)=O)C(=O)N[C@@H](C)C(=O)N[C@@H](C)C(=O)N[C@@H](CO)C(=O)O)C(C)C)C(C)C [GLIGSIGKALGGLLVDVLKPKLQAAS]	–	> 39.7	≥ 39.7	–	–	–	–	> 39.7	≥ 39.7	≥ 39.7	≥ 39.7	≥ 39.7	≥ 39.7	≥ 39.7	–
CC[C@H](C)[C@H](NC(=O)[C@H](CC(C)C)NC(=O)[C@H](CCCCN)NC(=O)[C@@H](NC(=O)[C@@H](NC(=O)[C@H](CC(C)C)NC(=O)[C@H](CCCCN)NC(=O)[C@H](CC(C)C)NC(=O)[C@@H](NC(=O)[C@H](CCCN=C(N)N)NC(=O)[C@@H](NC(=O)[C@H](CC(C)C)NC(=O)[C@@H](NC(=O)[C@H](CCCN=C(N)N)NC(=O)[C@H](CCCN=C(N)N)NC(=O)[C@@H](N)CCCCN)[C@@H](C)CC)[C@@H](C)CC)[C@@H](C)CC)[C@@H](C)CC)[C@@H](C)CC)C(=O)N[C@@H](CC(C)C)C(=O)N[C@@H](CCCCN)C(=O)N[C@@H](CCCCN)C(=O)N[C@@H](CCCN=C(N)N)C(N)=O [KRRILIRILKLIIKLILKKR]	–	–	–	–	–	–	–	–	–	–	–	–	–	–	MIC [19]: 0.989 µM (≈ 2.5 µg/mL); MIC [20]: 3.96 µM (≈ 10 µg/mL); MIC [21]: 3.96 µM (≈ 10 µg/mL); MIC [22]: 3.96 µM (≈ 10 µg/mL); MIC [23]: 0.989 µM (≈ 2.5 µg/mL); MIC [24]: 0.396 µM (≈ 1 µg/mL)
CC(C)C[C@H](NC(=O)[C@H](C)NC(=O)[C@H](CCCN=C(N)N)NC(=O)[C@H](CCCN=C(N)N)NC(=O)[C@H](C)NC(=O)[C@H](Cc1ccccc1)NC(=O)[C@H](CCCN=C(N)N)NC(=O)[C@@H](N)CC(C)C)C(=O)N[C@@H](CCCN=C(N)N)C(=O)N[C@@H](CCCN=C(N)N)C(=O)N[C@@H](CC(C)C)C(=O)N[C@@H](Cc1ccccc1)C(N)=O [LRFARRALRRLF]	–	–	–	–	–	–	–	–	–	–	–	–	–	–	MIC [19]: 0.635 µM (≈ 0.999 µg/mL); MIC [20]: 1.59 µM (≈ 2.5 µg/mL); MIC [21]: 0.318 µM (≈ 0.5 µg/mL); MIC [22]: 0.159 µM (≈ 0.25 µg/mL); MIC [23]: 0.159 µM (≈ 0.25 µg/mL); MIC [24]: 0.635 µM (≈ 0.999 µg/mL)

The next lines start with results.

MIC [1] [µM]	MIC [2] [µM]	MIC [4] [µM]	MIC [5] [µM]	MIC [6] [µM]	MIC [7] [µM]	MIC [8] [µM]	MIC [9] [µM]	MIC [10] [µM]	MIC [14] [µM]	MIC [15] [µM]	MIC [16] [µM]	MIC [17] [µM]	MIC [18] [µM]	SMILES	further results
–	> 61.4	7.36 (≈ 12 µg/mL)	–	–	–	–	15.3 (≈ 25 µg/mL)	15.3 (≈ 25 µg/mL)	15.3 (≈ 25 µg/mL)	3.68 (≈ 6 µg/mL)	15.3 (≈ 25 µg/mL)	≥ 61.4	7.36 (≈ 12 µg/mL)	CC[C@H](C)[C@H](NC(=O)[C@H](CC(=O)O)NC(=O)[C@H](Cc1ccccc1)NC(=O)[C@H](CC(C)C)NC(=O)CN)C(=O)N[C@H](C(=O)N[C@@H](CCCCN)C(=O)N[C@@H](CCCCN)C(=O)N[C@H](C(=O)N[C@@H](C)C(=O)N[C@@H](CO)C(=O)N[C@H](C(=O)N[C@H](C(=O)NCC(=O)NCC(=O)N[C@@H](CC(C)C)C(N)=O)[C@@H](C)CC)C(C)C)C(C)C)[C@@H](C)CC [GLFDIIKKVASVIGGL]	–
–	60.8 (≈ 99.9 µg/mL)	≥ 60.8	–	–	–	–	> 60.8	≥ 60.8	≥ 60.8	7.29 (≈ 12 µg/mL)	30.4 (≈ 50 µg/mL)	≥ 60.8	≥ 60.8	CC[C@H](C)[C@H](NC(=O)[C@H](CCCCN)NC(=O)[C@H](CO)NC(=O)[C@H](C)NC(=O)[C@@H](NC(=O)[C@H](CCCCN)NC(=O)[C@H](CCCCN)NC(=O)[C@@H](NC(=O)[C@@H](NC(=O)[C@H](CC(=O)O)NC(=O)[C@H](Cc1ccccc1)NC(=O)[C@H](CC(C)C)NC(=O)CN)C(C)C)[C@@H](C)CC)C(C)C)C(=O)NCC(=O)NCC(=O)N[C@@H](CC(C)C)C(N)=O [GLFDVIKKVASKIGGL]	–
–	> 63.5	≥ 63.5	–	–	–	–	> 63.5	≥ 63.5	≥ 63.5	15.9 (≈ 25 µg/mL)	≥ 63.5	≥ 63.5	≥ 63.5	CC[C@H](C)[C@H](NC(=O)[C@@H](NC(=O)[C@H](CO)NC(=O)[C@H](C)NC(=O)[C@@H](NC(=O)[C@H](CCCCN)NC(=O)[C@H](CCCCN)NC(=O)[C@@H](NC(=O)[C@@H](NC(=O)[C@H](CC(=O)O)NC(=O)[C@H](Cc1ccccc1)NC(=O)[C@H](CC(C)C)NC(=O)CN)C(C)C)[C@@H](C)CC)C(C)C)C(C)C)C(=O)NCC(=O)NCC(=O)N[C@@H](C)C(N)=O [GLFDVIKKVASVIGGA]	–
–	> 55.1	≥ 55.1	–	–	–	–	> 55.1	≥ 55.1	≥ 55.1	27.6 (≈ 50 µg/mL)	≥ 55.1	≥ 55.1	≥ 55.1	CC[C@H](C)[C@H](NC(=O)[C@@H](NC(=O)[C@H](CO)NC(=O)[C@H](C)NC(=O)[C@@H](NC(=O)[C@H](CCCCN)NC(=O)[C@H](CCCCN)NC(=O)[C@@H](NC(=O)[C@@H](NC(=O)[C@H](CC(=O)O)NC(=O)[C@H](Cc1ccccc1)NC(=O)[C@H](CC(C)C)NC(=O)CN)C(C)C)[C@@H](C)CC)C(C)C)C(C)C)C(=O)NCC(=O)N[C@@H](CC(C)C)C(=O)N[C@@H](C)C(=O)N[C@@H](CO)C(=O)N1CCC[C@H]1C(=O)O [GLFDVIKKVASVIGLASP]	–
